The results in this text go back to patent US10487068B2, “Pyridazine derivatives as RORc modulators” (Genentech, Inc., priority 2015, dated 2019).

The target of the assay is T1, RORc ligand binding domain (Homo sapiens, UniProt P51449).
T1 sequence (P51449 269-508 limits assumed): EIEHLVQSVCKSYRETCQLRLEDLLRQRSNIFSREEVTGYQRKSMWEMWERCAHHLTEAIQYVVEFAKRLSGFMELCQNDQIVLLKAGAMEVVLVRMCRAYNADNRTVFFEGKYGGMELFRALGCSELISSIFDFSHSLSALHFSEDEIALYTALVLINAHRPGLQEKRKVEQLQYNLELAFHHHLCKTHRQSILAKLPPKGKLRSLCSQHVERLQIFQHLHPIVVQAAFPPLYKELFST
Briefly: In Vitro RORc Ligand Binding Assay. The following applies: RORc IC50, radioligand 25-[3H]hydroxycholesterol 6 nM; 0.6 ug/mL RORc receptor; 3 h at 25° C.

A word on the IC50: it is the concentration at which inhibition is half-maximal. A lower IC50 goes with higher potency. In turn, `CC1(C)[C@H]2CC[C@]1(c1ncccn1)c1nnc(-c3c(F)cccc3F)cc12` [Example 1, (5R,8R)-3-(2,6-difluorophenyl)-9,9-dimethyl-8-(pyrimidin-2-yl)-5,6,7,8-tetrahydro-5,8-methanocinnoline] returned an IC50 of 15 nM.
For `CC1(C)[C@H]2CC[C@]1(c1cccnn1)c1nnc(-c3c(F)cccc3F)cc12` [Example 2, (5R,8S)-3-(2,6-difluorophenyl)-9,9-dimethyl-8-(pyridazin-3-yl)-5,6,7,8-tetrahydro-5,8-methanocinnoline], the IC50 was found to be 13.4 nM.
The value for `CC1(C)[C@H]2CC[C@]1(c1c[nH]c(=O)cn1)c1nnc(-c3c(F)cccc3F)cc12` [Example 5, 5-((5R,8S)-3-(2,6-difluorophenyl)-9,9-dimethyl-5,6,7,8-tetrahydro-5,8-methanocinnolin-8-yl)pyrazin-2(1H)-one] was 38.4 nM; that for `CC1(C)[C@H]2CC[C@]1(c1ncc(O)cn1)c1nnc(-c3c(F)cccc3F)cc12` [Example 6, 2-((5R,8R)-3-(2,6-difluorophenyl)-9,9-dimethyl-5,6,7,8-tetrahydro-5,8-methanocinnolin-8-yl)pyrimidin-5-ol] was 115 nM.
Molecule `CC1(C)[C@H]2CC[C@]1(c1ccnc(=O)[nH]1)c1nnc(-c3c(F)cccc3F)cc12` [Example 7, 6-((5R,8S)-3-(2,6-difluorophenyl)-9,9-dimethyl-5,6,7,8-tetrahydro-5,8-methanocinnolin-8-yl)pyrimidin-2(1H)-one] yielded an IC50 of 64 nM.
Regarding `Cn1c([C@@]23CC[C@@H](c4cc(-c5c(F)cccc5F)nnc42)C3(C)C)ccc(C#N)c1=O` [Example 8, 6-((5R,8S)-3-(2,6-difluorophenyl)-9,9-dimethyl-5,6,7,8-tetrahydro-5,8-methanocinnolin-8-yl)-1-methyl-2-oxo-1,2-dihydropyridine-3-carbonitrile], the IC50 came to 108 nM.
In turn, `COC(=O)c1cncc([C@@]23CC[C@@H](c4cc(-c5c(F)cccc5F)nnc42)C3(C)C)n1` [Example 9, methyl 6-((5R,8S)-3-(2,6-difluorophenyl)-9,9-dimethyl-5,6,7,8-tetrahydro-5,8-methanocinnolin-8-yl)pyrazine-2-carboxylate] showed an IC50 of 7.7 nM.
`COC(=O)c1cnc([C@@]23CC[C@@H](c4cc(-c5c(F)cccc5F)nnc42)C3(C)C)cn1` [Example 10, methyl 5-((5R,8S)-3-(2,6-difluorophenyl)-9,9-dimethyl-5,6,7,8-tetrahydro-5,8-methanocinnolin-8-yl)pyrazine-2-carboxylate] showed a 50% inhibitory concentration (IC50) of 389 nM.
Molecule `CC1(C)[C@H]2CC[C@]1(c1cncc(C(=O)O)n1)c1nnc(-c3c(F)cccc3F)cc12` [Example 11, 6-((5R,8S)-3-(2,6-difluorophenyl)-9,9-dimethyl-5,6,7,8-tetrahydro-5,8-methanocinnolin-8-yl)pyrazine-2-carboxylic acid] registered an IC50 of 38.9 nM.
Turning to `CC1(C)[C@H]2CC[C@]1(c1cncc(C(N)=O)n1)c1nnc(-c3c(F)cccc3F)cc12` [Example 12, 6-((5R,8S)-3-(2,6-difluorophenyl)-9,9-dimethyl-5,6,7,8-tetrahydro-5,8-methanocinnolin-8-yl)pyrazine-2-carboxamide], the concentration for half-maximal inhibition (IC50) was 18.3 nM.
The value for `CC1(C)[C@H]2CC[C@]1(c1cnc(C(N)=O)cn1)c1nnc(-c3c(F)cccc3F)cc12` [Example 13, 5-((5R,8S)-3-(2,6-difluorophenyl)-9,9-dimethyl-5,6,7,8-tetrahydro-5,8-methanocinnolin-8-yl)pyrazine-2-carboxamide] was 4270 nM; that for `CC1(C)[C@H]2CC[C@]1(c1cncc(C#N)n1)c1nnc(-c3c(F)cccc3F)cc12` [Example 14, 6-((5R,8S)-3-(2,6-difluorophenyl)-9,9-dimethyl-5,6,7,8-tetrahydro-5,8-methanocinnolin-8-yl)pyrazine-2-carbonitrile] was 5.7 nM.
Regarding `CC1(C)[C@H]2CC[C@]1(c1cnc(C#N)cn1)c1nnc(-c3c(F)cccc3F)cc12` [Example 15, 5-((5R,8S)-3-(2,6-difluorophenyl)-9,9-dimethyl-5,6,7,8-tetrahydro-5,8-methanocinnolin-8-yl)pyrazine-2-carbonitrile], the IC50 came out at 1310 nM.
`CC1(C)[C@H]2CC[C@]1(c1cccc(C#N)n1)c1nnc(-c3c(F)cccc3F)cc12` [Example 16, 6-((5R,8S)-3-(2,6-difluorophenyl)-9,9-dimethyl-5,6,7,8-tetrahydro-5,8-methanocinnolin-8-yl)picolinonitrile] gave a 50% inhibitory concentration (IC50) of 7.6 nM.
`CNC(=O)c1cccc([C@@]23CC[C@@H](c4cc(-c5c(F)cccc5F)nnc42)C3(C)C)n1` [Example 17, 6-((5R,8S)-3-(2,6-difluorophenyl)-9,9-dimethyl-5,6,7,8-tetrahydro-5,8-methanocinnolin-8-yl)-N-methylpicolinamide] registered an IC50 of 20.5 nM.
`CN(C)C(=O)c1cccc([C@@]23CC[C@@H](c4cc(-c5c(F)cccc5F)nnc42)C3(C)C)n1` [Example 18, 6-((5R,8S)-3-(2,6-difluorophenyl)-9,9-dimethyl-5,6,7,8-tetrahydro-5,8-methanocinnolin-8-yl)-N,N-dimethylpicolinamide] displayed an IC50 of 35.7 nM. Compared with the last molecule, the IC50 is about 1.7-fold higher.
Molecule `Cc1cncnc1[C@@]12CC[C@@H](c3cc(-c4c(F)cccc4F)nnc31)C2(C)C` [Example 19] showed an IC50 of 20.3 nM. Compared with the last molecule, the IC50 is about 1.8-fold lower.
The value for `CC1(C)[C@H]2CC[C@]1(c1nccc(=O)[nH]1)c1nnc(-c3c(F)cccc3F)cc12` [Example 20, 2-((5R,8R)-3-(2,6-difluorophenyl)-9,9-dimethyl-5,6,7,8-tetrahydro-5,8-methanocinnolin-8-yl)pyrimidin-4(3H)-one] was 140 nM.
In the case of `COc1ccnc([C@@]23CC[C@@H](c4cc(-c5c(F)cccc5F)nnc42)C3(C)C)n1` [Example 21, (5R,8R)-3-(2,6-difluorophenyl)-8-(4-methoxypyrimidin-2-yl)-9,9-dimethyl-5,6,7,8-tetrahydro-5,8-methanocinnoline] it was 23.8 nM; in that of `CC1(C)[C@H]2CC[C@]1(c1cc(=O)cco1)c1nnc(-c3c(F)cccc3F)cc12` [Example 22, 2-((5R,8R)-3-(2,6-difluorophenyl)-9,9-dimethyl-5,6,7,8-tetrahydro-5,8-methanocinnolin-8-yl)-4H-pyran-4-one], 33.5 nM.
`CC1(C)[C@H]2CC[C@]1(c1ccnc(N)n1)c1nnc(-c3c(F)cccc3F)cc12` [Example 23] showed an IC50 of 21.9 nM.
The molecule `CC1(C)[C@H]2CC[C@]1(c1cc(=O)cc[nH]1)c1nnc(-c3c(F)cccc3F)cc12` [Example 24, 2-((5R,8S)-3-(2,6-difluorophenyl)-9,9-dimethyl-5,6,7,8-tetrahydro-5,8-methanocinnolin-8-yl)pyridin-4(1H)-one] yielded an IC50 of 1940 nM.
`CC1(C)[C@H]2CC[C@]1(c1cc(O)cc(=O)o1)c1nnc(-c3c(F)cccc3F)cc12` [Example 25, 6-((5R,8R)-3-(2,6-difluorophenyl)-9,9-dimethyl-5,6,7,8-tetrahydro-5,8-methanocinnolin-8-yl)-4-hydroxy-2H-pyran-2-one] yielded a half-inhibitory concentration (IC50) of 2490 nM. The IC50 values of the last two molecules are within 1.5-fold of each other.
In the case of `COc1ccnc([C@@]23CC[C@@H](c4cc(-c5c(F)cccc5F)nnc42)C3(C)C)c1` [Example 26] it was 57.2 nM; in that of `CNC(=O)c1cncc([C@@]23CC[C@@H](c4cc(-c5c(F)cccc5F)nnc42)C3(C)C)n1` [Example 27, 6-((5R,8S)-3-(2,6-difluorophenyl)-9,9-dimethyl-5,6,7,8-tetrahydro-5,8-methanocinnolin-8-yl)-N-methylpyrazine-2-carboxamide], 26.4 nM; in that of `CN(C)C(=O)c1cncc([C@@]23CC[C@@H](c4cc(-c5c(F)cccc5F)nnc42)C3(C)C)n1` [Example 28, 6-((5R,8S)-3-(2,6-difluorophenyl)-9,9-dimethyl-5,6,7,8-tetrahydro-5,8-methanocinnolin-8-yl)-N,N-dimethylpyrazine-2-carboxamide], 41.7 nM.
Take `CC1(C)[C@H]2CC[C@]1(c1cncc(C(=O)NC3COC3)n1)c1nnc(-c3c(F)cccc3F)cc12` [Example 29, 6-((5R,8S)-3-(2,6-difluorophenyl)-9,9-dimethyl-5,6,7,8-tetrahydro-5,8-methanocinnolin-8-yl)-N-(oxetan-3-yl)pyrazine-2-carboxamide]: the IC50 was found to be 43.1 nM.
For the molecule `CC1(C)[C@H]2CC[C@]1(c1cncc(C(=O)N3CC(C#N)C3)n1)c1nnc(-c3c(F)cccc3F)cc12` [Example 30, 1-(6-((5R,8S)-3-(2,6-difluorophenyl)-9,9-dimethyl-5,6,7,8-tetrahydro-5,8-methanocinnolin-8-yl)pyrazine-2-carbonyl)azetidine-3-carbonitrile], the IC50 worked out at 146 nM.
The molecule `CC1(C)[C@H]2CC[C@]1(c1cncc(C(=O)N3CC(CO)C3)n1)c1nnc(-c3c(F)cccc3F)cc12` [Example 31, (6-((5R,8S)-3-(2,6-difluorophenyl)-9,9-dimethyl-5,6,7,8-tetrahydro-5,8-methanocinnolin-8-yl)pyrazin-2-yl)(3-(hydroxymethyl)azetidin-1-yl)methanone] displayed an IC50 of 93.3 nM.
The value for `CC(=O)Nc1cncc([C@@]23CC[C@@H](c4cc(-c5c(F)cccc5F)nnc42)C3(C)C)n1` [Example 32, N-(6-((5R,8S)-3-(2,6-difluorophenyl)-9,9-dimethyl-5,6,7,8-tetrahydro-5,8-methanocinnolin-8-yl)pyrazin-2-yl)acetamide] was 22 nM; that for `CC1(C)[C@H]2CC[C@]1(c1cncc(N)n1)c1nnc(-c3c(F)cccc3F)cc12` [Example 33, 6-((5R,8S)-3-(2,6-difluorophenyl)-9,9-dimethyl-5,6,7,8-tetrahydro-5,8-methanocinnolin-8-yl)pyrazin-2-amine] was 22 nM.
